For orientation: EC50 means the midpoint of the concentration-response curve.

Our source for the EC50 values is patent EP4596574A1, “GLP-1/GCG/GIP TRIPLE-RECEPTOR AGONIST AND USE THEREOF” (Sunshine Lake Pharma Co., Ltd., priority 2022, dated 2024).

Common to all, as to type: cell-based
One assay has as its target T1, GIPR (Homo sapiens, UniProt P48546).
T1 construct: expressed in transfected cells; host or cells: HEK293 (HEK293-GIPR)
T1 sequence (P48546 22-466): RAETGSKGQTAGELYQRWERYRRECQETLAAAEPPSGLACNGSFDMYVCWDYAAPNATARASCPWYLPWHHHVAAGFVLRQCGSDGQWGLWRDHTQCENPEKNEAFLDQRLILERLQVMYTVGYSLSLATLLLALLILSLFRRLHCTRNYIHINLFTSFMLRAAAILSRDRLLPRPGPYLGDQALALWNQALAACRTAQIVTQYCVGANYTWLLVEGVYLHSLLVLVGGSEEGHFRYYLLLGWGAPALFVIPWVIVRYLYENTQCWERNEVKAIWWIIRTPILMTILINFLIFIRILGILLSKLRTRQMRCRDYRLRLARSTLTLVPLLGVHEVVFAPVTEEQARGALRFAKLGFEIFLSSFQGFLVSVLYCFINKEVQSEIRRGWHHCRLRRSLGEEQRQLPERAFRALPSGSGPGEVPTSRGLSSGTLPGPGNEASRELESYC
Nature of the assay: In vitro cell activity, cAMP production in HEK293 cells expressing GIPR. Conditions: HEK293-GIPR cells, cAMP; read-out: GIPR (EC50). The procedure, abridged: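 HEK293 cells expressing human GIPR, thawed and diluted to 4×10^5 cells/mL, are stimulated with test compound. cAMP is measured by HTRF competition between cAMP-d2 and anti-cAMP cryptate. EC50 comes from a four-parameter nonlinear fit of signal ratio against concentration.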
Background: Changes in cAMP serve as a functional read-out for many G protein-coupled receptors.

The next assay addresses T2, GLP-1R (Homo sapiens, UniProt P43220).
T2 construct: expressed in transfected cells; host or cells: HEK293 (HEK293-GLP-1R)
Kind of assay: In vitro cell activity, cAMP production in HEK293 cells expressing GLP-1R. Conditions: HEK293-GLP-1R cells, cAMP; read-out: GLP-1R (EC50). Summed up:
(§1)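 HEK293 transfectants, 4×10^5 cells/mL, 384-well. Detection: cAMP-d2 + anti-cAMP cryptate 1:1, RT 1 h dark or 4 °C o/n. Read 665/620 nm; 4-parameter nonlinear fit → EC50.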

The target in a further assay is T3, GCGR (Homo sapiens, UniProt P47871).
T3 construct: expressed in transfected cells; host or cells: HEK293 (HEK293-GCGR)
T3 sequence (P47871 26-477, species assumed): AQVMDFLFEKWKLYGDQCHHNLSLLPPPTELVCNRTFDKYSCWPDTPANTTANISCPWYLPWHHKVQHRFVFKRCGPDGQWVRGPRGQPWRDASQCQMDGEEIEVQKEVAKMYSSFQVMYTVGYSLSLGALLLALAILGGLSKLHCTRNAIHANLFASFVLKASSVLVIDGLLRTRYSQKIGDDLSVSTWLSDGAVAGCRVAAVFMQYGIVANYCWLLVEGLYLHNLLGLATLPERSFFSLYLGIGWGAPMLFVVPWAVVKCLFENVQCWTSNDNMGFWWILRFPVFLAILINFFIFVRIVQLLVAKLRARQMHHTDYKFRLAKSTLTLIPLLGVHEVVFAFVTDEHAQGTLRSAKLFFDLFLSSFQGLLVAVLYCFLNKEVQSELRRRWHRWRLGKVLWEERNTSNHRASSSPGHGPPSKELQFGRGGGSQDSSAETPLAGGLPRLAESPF
Kind of assay: In vitro cell activity, cAMP production in HEK293 cells expressing GCGR. To be noted: HEK293-GCGR cells, cAMP; read-out: GCGR (EC50). Summed up: as §1

Starred links: 1 amine or outer side, 2 acyl side, 3 side chain; linkers in the order of their positions; H or OH if unused. Non-standard residues stand in square brackets, D forms with d. Residues, ends and D or L forms follow the SMILES beside them. Groups on a side chain read outwards from the residue. *: point of attachment. C18 diacid = O=C(O)CCCCCCCCCCCCCCCCC(=O)*; αMePhe(2-F) = C[C@](N)(Cc1ccccc1F)C(=O)O; γGlu = O=C(O)[C@H](CCC(=O)[*:2])N[*:1]; AEEA = NCCOCCOCC(=O)O; Aib = CC(C)(N)C(=O)O

T2 sequence (P43220 24-463, species assumed): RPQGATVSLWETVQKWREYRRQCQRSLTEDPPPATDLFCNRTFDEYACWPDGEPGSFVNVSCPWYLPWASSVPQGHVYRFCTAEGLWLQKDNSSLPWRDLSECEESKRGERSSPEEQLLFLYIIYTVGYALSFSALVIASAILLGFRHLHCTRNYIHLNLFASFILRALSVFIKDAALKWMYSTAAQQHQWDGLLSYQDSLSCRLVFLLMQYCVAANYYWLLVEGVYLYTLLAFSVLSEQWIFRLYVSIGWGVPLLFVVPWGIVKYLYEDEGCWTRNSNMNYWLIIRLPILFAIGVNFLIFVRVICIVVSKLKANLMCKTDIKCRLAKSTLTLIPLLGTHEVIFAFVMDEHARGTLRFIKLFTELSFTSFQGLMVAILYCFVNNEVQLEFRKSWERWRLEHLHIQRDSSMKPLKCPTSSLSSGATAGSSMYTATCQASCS

For `CC[C@H](C)[C@H](NC(=O)[C@H](Cc1ccccc1)NC(=O)[C@H](C)NC(=O)[C@H](CCC(N)=O)NC(=O)[C@H](CCC(N)=O)NC(=O)[C@H](CCCNC(=N)N)NC(=O)[C@@H](NC(=O)[C@H](CCCNC(=N)N)NC(=O)[C@H](CC(=O)O)NC(=O)[C@H](CCCCNC(=O)COCCOCCNC(=O)CC[C@H](NC(=O)CCCCCCCCCCCCCCCCC(=O)O)C(=O)O)NC(=O)[C@H](CC(C)C)NC(=O)[C@@H](NC(=O)[C@H](CO)NC(=O)[C@H](Cc1ccc(O)cc1)NC(=O)[C@H](CC(=O)O)NC(=O)[C@H](CO)NC(=O)[C@@H](NC(=O)[C@](C)(Cc1ccccc1F)NC(=O)[C@@H](NC(=O)CNC(=O)[C@H](CCC(N)=O)NC(=O)C(C)(C)NC(=O)[C@@H](N)Cc1ccc(O)cc1)[C@@H](C)O)[C@@H](C)O)[C@@H](C)CC)[C@@H](C)CC)C(=O)N[C@@H](CCC(=O)O)C(=O)N[C@@H](Cc1ccc(O)cc1)C(=O)N[C@@H](CC(C)C)C(=O)N[C@@H](CC(C)C)C(=O)N[C@@H](C)C(=O)NCC(=O)NCC(=O)N1CCC[C@H]1C(=O)N[C@@H](CO)C(=O)N[C@@H](CO)C(=O)NCC(=O)N[C@@H](C)C(=O)N1CCC[C@H]1C(=O)N1CCC[C@H]1C(=O)N1CCC[C@H]1C(=O)N[C@@H](CO)C(=O)O` [HEC-PT147] (H-Y[Aib]QGT[αMePhe(2-F)]TSDYSILK([AEEA-γGlu-C18 diacid])DRIRQQAFIEYLLAGGPSSGAPPPS-OH), the EC50 on GIPR was determined as 0.0861 nM; at GLP-1R, 0.174 nM; at GCGR it was 0.17 nM.
For the molecule `CC[C@H](C)[C@H](NC(=O)[C@H](CCCCN)NC(=O)[C@H](CC(=O)O)NC(=O)[C@H](CCCCNC(=O)COCCOCCNC(=O)CC[C@H](NC(=O)CCCCCCCCCCCCCCCCC(=O)O)C(=O)O)NC(=O)[C@H](CC(C)C)NC(=O)[C@@H](NC(=O)[C@H](CO)NC(=O)[C@H](Cc1ccc(O)cc1)NC(=O)[C@H](CC(=O)O)NC(=O)[C@H](CO)NC(=O)[C@@H](NC(=O)[C@](C)(Cc1ccccc1F)NC(=O)[C@@H](NC(=O)CNC(=O)[C@H](CCC(N)=O)NC(=O)C(C)(C)NC(=O)[C@@H](N)Cc1ccc(O)cc1)[C@@H](C)O)[C@@H](C)O)[C@@H](C)CC)C(=O)N[C@@H](C)C(=O)N[C@@H](CCC(N)=O)C(=O)N[C@@H](CCCCN)C(=O)N[C@@H](C)C(=O)N[C@@H](Cc1ccccc1)C(=O)N[C@H](C(=O)N[C@@H](CCC(=O)O)C(=O)N[C@@H](Cc1ccc(O)cc1)C(=O)N[C@@H](CC(C)C)C(=O)N[C@@H](CC(C)C)C(=O)N[C@@H](CCC(=O)O)C(=O)NCC(=O)NCC(=O)N1CCC[C@H]1C(=O)N[C@@H](CO)C(=O)N[C@@H](CO)C(=O)NCC(=O)N[C@@H](C)C(=O)N1CCC[C@H]1C(=O)N1CCC[C@H]1C(=O)N1CCC[C@H]1C(=O)N[C@@H](CO)C(N)=O)[C@@H](C)CC` [HEC-PT141] (H-Y[Aib]QGT[αMePhe(2-F)]TSDYSILK([AEEA-γGlu-C18 diacid])DKIAQKAFIEYLLEGGPSSGAPPPS-NH2), the EC50 on GIPR came to 0.0955 nM; on GLP-1R, 0.163 nM; at GCGR, 0.216 nM.
On to `CC[C@H](C)[C@H](NC(=O)[C@H](Cc1ccccc1)NC(=O)[C@H](C)NC(=O)[C@H](CCCCN)NC(=O)[C@H](CCC(N)=O)NC(=O)[C@H](CCCNC(=N)N)NC(=O)[C@H](CCCCNC(=O)COCCOCCNC(=O)CC[C@H](NC(=O)CCCCCCCCCCCCCCCCC(=O)O)C(=O)O)NC(=O)[C@H](CCC(=O)O)NC(=O)[C@H](CC(=O)O)NC(=O)[C@H](CC(C)C)NC(=O)[C@H](CC(C)C)NC(=O)[C@@H](NC(=O)[C@H](CO)NC(=O)[C@H](Cc1ccc(O)cc1)NC(=O)[C@H](CC(=O)O)NC(=O)[C@H](CO)NC(=O)[C@@H](NC(=O)[C@](C)(Cc1ccccc1F)NC(=O)[C@@H](NC(=O)CNC(=O)[C@H](Cc1c[nH]cn1)NC(=O)C(C)(C)NC(=O)[C@@H](N)Cc1ccc(O)cc1)[C@@H](C)O)[C@@H](C)O)[C@@H](C)CC)C(=O)N[C@@H](CCC(=O)O)C(=O)N[C@@H](Cc1ccc(O)cc1)C(=O)N[C@@H](CC(C)C)C(=O)N[C@@H](CC(C)C)C(=O)N[C@@H](C)C(=O)NCC(=O)NCC(=O)N1CCC[C@H]1C(=O)N[C@@H](CO)C(=O)N[C@@H](CO)C(=O)NCC(=O)N[C@@H](C)C(=O)N1CCC[C@H]1C(=O)N1CCC[C@H]1C(=O)N1CCC[C@H]1C(=O)N[C@@H](CO)C(N)=O` [HEC-PT121], for which the EC50 at GIPR was determined as 0.0813 nM; at GLP-1R, 0.275 nM; at GCGR, 0.89 nM.
As to `CC[C@H](C)[C@H](NC(=O)[C@H](Cc1ccccc1)NC(=O)[C@H](C)NC(=O)[C@H](Cc1c[nH]cn1)NC(=O)[C@H](CCC(N)=O)NC(=O)[C@H](C)NC(=O)[C@H](CCCCNC(=O)COCCOCCNC(=O)CC[C@H](NC(=O)CCCCCCCCCCCCCCCCC(=O)O)C(=O)O)NC(=O)[C@H](CCCNC(=N)N)NC(=O)[C@H](CC(=O)O)NC(=O)[C@H](CC(C)C)NC(=O)[C@H](CC(C)C)NC(=O)[C@@H](NC(=O)[C@H](CO)NC(=O)[C@H](Cc1ccc(O)cc1)NC(=O)[C@H](CC(=O)O)NC(=O)[C@H](CO)NC(=O)[C@@H](NC(=O)[C@](C)(Cc1ccccc1F)NC(=O)[C@@H](NC(=O)CNC(=O)[C@H](CCC(N)=O)NC(=O)C(C)(C)NC(=O)[C@@H](N)Cc1c[nH]cn1)[C@@H](C)O)[C@@H](C)O)[C@@H](C)CC)C(=O)N[C@@H](CCC(=O)O)C(=O)N[C@@H](Cc1ccc(O)cc1)C(=O)N[C@@H](CC(C)C)C(=O)N[C@@H](CC(C)C)C(=O)N[C@@H](C)C(=O)NCC(=O)NCC(=O)N1CCC[C@H]1C(=O)N[C@@H](CO)C(=O)N[C@@H](CO)C(=O)NCC(=O)N[C@@H](C)C(=O)N1CCC[C@H]1C(=O)N1CCC[C@H]1C(=O)N1CCC[C@H]1C(=O)N[C@@H](CO)C(=O)O` [HEC-PT155], the EC50 turned out to be 0.0509 nM at GIPR, 0.0555 nM at GLP-1R and 0.0581 nM at GCGR.
The corresponding values for `CC[C@H](C)[C@H](NC(=O)[C@H](Cc1ccccc1)NC(=O)[C@H](C)NC(=O)[C@H](CCC(N)=O)NC(=O)[C@H](CCC(N)=O)NC(=O)[C@H](CCCNC(=N)N)NC(=O)[C@@H](NC(=O)[C@H](CCCNC(=N)N)NC(=O)[C@H](CC(=O)O)NC(=O)[C@H](CCCCNC(=O)COCCOCCNC(=O)CC[C@H](NC(=O)CCCCCCCCCCCCCCCCC(=O)O)C(=O)O)NC(=O)[C@H](CC(C)C)NC(=O)[C@@H](NC(=O)[C@H](CO)NC(=O)[C@H](Cc1ccc(O)cc1)NC(=O)[C@H](CC(=O)O)NC(=O)[C@H](CO)NC(=O)[C@@H](NC(=O)[C@](C)(Cc1ccccc1F)NC(=O)[C@@H](NC(=O)CNC(=O)[C@H](CCC(N)=O)NC(=O)C(C)(C)NC(=O)[C@@H](N)Cc1ccc(O)cc1)[C@@H](C)O)[C@@H](C)O)[C@@H](C)CC)[C@@H](C)CC)C(=O)N[C@@H](CCC(=O)O)C(=O)N[C@@H](Cc1ccc(O)cc1)C(=O)N[C@@H](CC(C)C)C(=O)N[C@@H](CC(C)C)C(=O)N[C@@H](CCC(=O)O)C(=O)NCC(=O)NCC(=O)N1CCC[C@H]1C(=O)N[C@@H](CO)C(=O)N[C@@H](CO)C(=O)NCC(=O)N[C@@H](C)C(=O)N1CCC[C@H]1C(=O)N1CCC[C@H]1C(=O)N1CCC[C@H]1C(=O)N[C@@H](CO)C(=O)O` [HEC-PT146] (H-Y[Aib]QGT[αMePhe(2-F)]TSDYSILK([AEEA-γGlu-C18 diacid])DRIRQQAFIEYLLEGGPSSGAPPPS-OH) are 0.105 nM, 0.365 nM and 0.121 nM.
On the same counts, the results for `CC[C@H](C)[C@H](NC(=O)[C@H](Cc1ccccc1)NC(=O)[C@H](C)NC(=O)[C@H](CCCNC(=N)N)NC(=O)[C@H](CCC(N)=O)NC(=O)[C@H](CCCNC(=N)N)NC(=O)[C@H](CCCCNC(=O)COCCOCCNC(=O)CC[C@H](NC(=O)CCCCCCCCCCCCCCCCC(=O)O)C(=O)O)NC(=O)[C@H](CCC(=O)O)NC(=O)[C@H](CC(=O)O)NC(=O)[C@H](CC(C)C)NC(=O)[C@H](CC(C)C)NC(=O)[C@@H](NC(=O)[C@H](CO)NC(=O)[C@H](Cc1ccc(O)cc1)NC(=O)[C@H](CC(=O)O)NC(=O)[C@H](CO)NC(=O)[C@@H](NC(=O)[C@](C)(Cc1ccccc1F)NC(=O)[C@@H](NC(=O)CNC(=O)[C@H](CCC(N)=O)NC(=O)C(C)(C)NC(=O)[C@@H](N)Cc1ccc(O)cc1)[C@@H](C)O)[C@@H](C)O)[C@@H](C)CC)C(=O)N[C@@H](CCC(=O)O)C(=O)N[C@@H](Cc1ccc(O)cc1)C(=O)N[C@@H](CC(C)C)C(=O)N[C@@H](CC(C)C)C(=O)N[C@@H](CCC(=O)O)C(=O)NCC(=O)NCC(=O)N1CCC[C@H]1C(=O)N[C@@H](CO)C(=O)N[C@@H](CO)C(=O)NCC(=O)N[C@@H](C)C(=O)N1CCC[C@H]1C(=O)N1CCC[C@H]1C(=O)N1CCC[C@H]1C(=O)N[C@@H](CO)C(=O)O` [HEC-PT124] are 0.152 nM, 0.228 nM and 0.332 nM.
